Laboratory results from ChEMBL document CHEMBL5357082, “Identification and Optimization of Small Molecule Pyrazolopyrimidine TLR7 Agonists for Applications in Immuno-oncology” (ACS Med Chem Lett, 2024).
Activity calls are given as the source filed them. The calls are words filed in the database; no cut-off is given here.

Tests used:
[1] = target: Cytochrome P450 2C9 (Homo sapiens, UniProt P11712); test: Inhibition of CYP2C9 (unknown origin); assay type: ADME
[2] = target: Voltage-gated inwardly rectifying potassium channel KCNH2 (Homo sapiens, UniProt Q12809); test: Inhibition of hERG; assay type: toxicity
[3] = Metabolic stability in mouse liver microsomes assessed as compound remaining at 0.5 uM incubated for 10 mins in presence of NADPH by UV absorbance based assay; assay type: ADME, Microsome; settings: read-out: Stability
[4] = Permeability of compound at pH 7.4 by PAMPA; assay type: ADME; settings: read-out: permeability
[5] = target: T1, Cytochrome P450 1A2 (Homo sapiens, UniProt P05177); test: Inhibition of CYP1A2 (unknown origin); assay type: ADME
T1 sequence (P05177 whole entry): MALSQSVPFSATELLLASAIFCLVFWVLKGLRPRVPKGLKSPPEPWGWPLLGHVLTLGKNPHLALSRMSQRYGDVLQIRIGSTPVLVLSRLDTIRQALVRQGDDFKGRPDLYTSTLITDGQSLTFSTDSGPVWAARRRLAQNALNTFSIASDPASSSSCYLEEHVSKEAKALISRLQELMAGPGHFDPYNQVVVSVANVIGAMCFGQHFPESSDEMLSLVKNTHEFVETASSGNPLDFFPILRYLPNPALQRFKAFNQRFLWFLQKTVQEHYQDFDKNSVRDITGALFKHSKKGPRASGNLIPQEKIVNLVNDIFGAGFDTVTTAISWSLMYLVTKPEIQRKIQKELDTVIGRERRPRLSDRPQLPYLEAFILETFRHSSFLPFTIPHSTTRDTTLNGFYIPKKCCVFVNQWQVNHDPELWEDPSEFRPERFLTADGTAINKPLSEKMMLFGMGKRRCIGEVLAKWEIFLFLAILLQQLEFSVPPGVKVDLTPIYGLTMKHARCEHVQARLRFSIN

[6] = target: T2, Cytochrome P450 3A4 (Homo sapiens, UniProt P08684); test: Inhibition of CYP3A4 (unknown origin) using BFC as substrate preincubated with compound followed by substrate addition at 30 mins; assay type: ADME
[7] = Metabolic stability in human liver microsomes assessed as compound remaining at 0.5 uM incubated for 10 mins in presence of NADPH by UV absorbance based assay; assay type: ADME, Microsome; settings: read-out: Stability
[8] = target: T2, Cytochrome P450 3A4; test: Inhibition of CYP3A4 (unknown origin) using BFC as substrate; assay type: ADME
[9] = target: T3, Toll-like receptor 7 (Mus musculus, UniProt P58681); test: (§1) Agonist activity at mouse TLR7
T3 sequence (P58681 whole entry): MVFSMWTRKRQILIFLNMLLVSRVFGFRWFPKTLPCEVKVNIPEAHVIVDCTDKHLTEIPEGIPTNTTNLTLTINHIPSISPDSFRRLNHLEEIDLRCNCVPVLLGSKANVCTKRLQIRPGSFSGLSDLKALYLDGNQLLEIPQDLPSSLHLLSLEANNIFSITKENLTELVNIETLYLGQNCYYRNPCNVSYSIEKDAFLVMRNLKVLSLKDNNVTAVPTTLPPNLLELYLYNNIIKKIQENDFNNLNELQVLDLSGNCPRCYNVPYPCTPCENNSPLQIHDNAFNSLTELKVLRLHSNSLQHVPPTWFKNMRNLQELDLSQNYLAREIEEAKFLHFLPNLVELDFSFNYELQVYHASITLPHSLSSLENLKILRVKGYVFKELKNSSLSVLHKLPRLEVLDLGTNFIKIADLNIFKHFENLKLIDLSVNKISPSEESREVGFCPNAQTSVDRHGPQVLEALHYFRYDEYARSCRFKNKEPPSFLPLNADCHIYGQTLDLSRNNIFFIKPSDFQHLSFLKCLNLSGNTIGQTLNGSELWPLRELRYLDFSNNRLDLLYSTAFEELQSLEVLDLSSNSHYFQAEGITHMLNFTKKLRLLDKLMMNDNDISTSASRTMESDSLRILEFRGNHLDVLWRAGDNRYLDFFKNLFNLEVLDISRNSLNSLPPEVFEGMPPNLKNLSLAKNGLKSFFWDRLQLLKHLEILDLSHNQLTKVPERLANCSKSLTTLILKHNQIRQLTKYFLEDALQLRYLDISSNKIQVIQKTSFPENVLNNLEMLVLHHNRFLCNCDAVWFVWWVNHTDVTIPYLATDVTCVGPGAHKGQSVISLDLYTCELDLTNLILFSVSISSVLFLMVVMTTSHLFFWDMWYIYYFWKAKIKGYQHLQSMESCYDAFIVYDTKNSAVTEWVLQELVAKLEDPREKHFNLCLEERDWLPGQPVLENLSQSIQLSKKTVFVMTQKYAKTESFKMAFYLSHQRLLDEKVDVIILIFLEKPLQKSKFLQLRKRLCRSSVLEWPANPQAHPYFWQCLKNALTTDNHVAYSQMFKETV

[10] = Cytotoxicity against PHA-activated T-cells (unknown origin) assessed as inhibition of IL-2 induced cell proliferation measured after 72 hrs by MTS assay; assay type: toxicity, cell-based
[11] = target: T4, Cytochrome P450 2C8 (Homo sapiens, UniProt P10632); test: Inhibition of CYP2C8 (unknown origin); assay type: ADME
T4 sequence (P10632 whole entry): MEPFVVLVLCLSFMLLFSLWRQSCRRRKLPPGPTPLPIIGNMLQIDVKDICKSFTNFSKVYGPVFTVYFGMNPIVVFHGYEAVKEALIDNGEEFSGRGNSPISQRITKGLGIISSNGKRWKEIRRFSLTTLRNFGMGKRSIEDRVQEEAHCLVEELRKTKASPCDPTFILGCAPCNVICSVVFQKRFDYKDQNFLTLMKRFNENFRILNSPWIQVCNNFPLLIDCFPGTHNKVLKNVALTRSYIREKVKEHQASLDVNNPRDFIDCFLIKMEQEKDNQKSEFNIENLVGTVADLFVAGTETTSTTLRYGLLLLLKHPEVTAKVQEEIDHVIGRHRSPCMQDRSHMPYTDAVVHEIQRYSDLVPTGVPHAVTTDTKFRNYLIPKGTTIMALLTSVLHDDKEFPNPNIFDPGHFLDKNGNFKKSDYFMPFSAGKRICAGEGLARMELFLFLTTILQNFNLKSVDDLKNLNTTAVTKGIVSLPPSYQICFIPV

[12] = target: T5, Toll-like receptor 7 (Homo sapiens, UniProt Q9NYK1); test: Agonist activity at human TLR7 in HEK-Blue hTLR7 cells harboring SEAP reporter transgene incubated for 18 hrs by quanti-blue reagent based assay; assay type: cell-based
T5 sequence (Q9NYK1 whole entry): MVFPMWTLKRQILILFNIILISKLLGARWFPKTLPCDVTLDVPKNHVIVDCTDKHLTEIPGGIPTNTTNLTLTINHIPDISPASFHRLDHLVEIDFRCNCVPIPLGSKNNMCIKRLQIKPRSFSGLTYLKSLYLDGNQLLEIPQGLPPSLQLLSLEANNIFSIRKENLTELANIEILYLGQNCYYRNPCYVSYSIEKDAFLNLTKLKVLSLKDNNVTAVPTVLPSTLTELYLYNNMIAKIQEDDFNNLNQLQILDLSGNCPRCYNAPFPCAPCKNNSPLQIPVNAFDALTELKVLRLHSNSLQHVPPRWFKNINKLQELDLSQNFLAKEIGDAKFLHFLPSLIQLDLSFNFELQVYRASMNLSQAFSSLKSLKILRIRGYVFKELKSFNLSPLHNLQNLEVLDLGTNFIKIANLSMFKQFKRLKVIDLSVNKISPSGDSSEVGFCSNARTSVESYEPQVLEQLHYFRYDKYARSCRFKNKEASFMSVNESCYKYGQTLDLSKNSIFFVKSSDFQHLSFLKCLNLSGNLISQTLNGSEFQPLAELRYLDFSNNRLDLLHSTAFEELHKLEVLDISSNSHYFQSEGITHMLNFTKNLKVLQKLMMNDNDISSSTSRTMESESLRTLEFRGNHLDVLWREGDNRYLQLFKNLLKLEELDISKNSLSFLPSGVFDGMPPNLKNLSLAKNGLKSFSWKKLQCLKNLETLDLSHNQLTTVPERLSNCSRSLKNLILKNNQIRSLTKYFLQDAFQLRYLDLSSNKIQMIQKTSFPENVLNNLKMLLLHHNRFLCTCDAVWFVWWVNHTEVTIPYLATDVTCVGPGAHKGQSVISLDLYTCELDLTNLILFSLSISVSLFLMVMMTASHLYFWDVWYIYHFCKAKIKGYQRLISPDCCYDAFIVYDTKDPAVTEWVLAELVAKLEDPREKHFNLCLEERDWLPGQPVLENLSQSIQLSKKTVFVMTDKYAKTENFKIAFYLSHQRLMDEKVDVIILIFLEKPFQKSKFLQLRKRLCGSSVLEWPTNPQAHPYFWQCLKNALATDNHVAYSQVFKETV

[13] = target: Cytochrome P450 2C19 (Homo sapiens, UniProt P33261); test: Inhibition of CYP2C19 (unknown origin); assay type: ADME
[14] = target: T2, Cytochrome P450 3A4; test: Inhibition of CYP3A4 (unknown origin) using BFC as substrate preincubated with compound followed by substrate addition at 5 mins; assay type: ADME
[15] = target: Cytochrome P450 2D6 (Homo sapiens, UniProt P10635); test: Inhibition of CYP2D6 (unknown origin); assay type: ADME
[16] = target: T6, Toll-like receptor 7 (Mus musculus) (UniProt P58681); test: as §1
T6 sequence (whole entry): T3 sequence (P58681 whole entry)

T2 sequence (P08684 whole entry): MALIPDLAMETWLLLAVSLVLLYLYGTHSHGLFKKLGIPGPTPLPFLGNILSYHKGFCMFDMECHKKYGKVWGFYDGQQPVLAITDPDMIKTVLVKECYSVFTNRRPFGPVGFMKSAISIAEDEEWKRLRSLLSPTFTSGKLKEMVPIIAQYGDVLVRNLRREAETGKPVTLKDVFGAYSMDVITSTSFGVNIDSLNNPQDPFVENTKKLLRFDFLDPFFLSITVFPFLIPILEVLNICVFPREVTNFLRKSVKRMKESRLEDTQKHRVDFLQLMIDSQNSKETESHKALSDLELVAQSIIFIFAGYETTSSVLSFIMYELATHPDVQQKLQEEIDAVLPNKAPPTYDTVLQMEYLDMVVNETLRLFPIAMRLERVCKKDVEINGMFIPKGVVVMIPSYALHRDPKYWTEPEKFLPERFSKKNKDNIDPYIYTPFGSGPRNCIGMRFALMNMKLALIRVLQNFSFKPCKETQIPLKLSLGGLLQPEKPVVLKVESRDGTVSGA
Cytochrome P450 2D6, sequence (P10635 whole entry): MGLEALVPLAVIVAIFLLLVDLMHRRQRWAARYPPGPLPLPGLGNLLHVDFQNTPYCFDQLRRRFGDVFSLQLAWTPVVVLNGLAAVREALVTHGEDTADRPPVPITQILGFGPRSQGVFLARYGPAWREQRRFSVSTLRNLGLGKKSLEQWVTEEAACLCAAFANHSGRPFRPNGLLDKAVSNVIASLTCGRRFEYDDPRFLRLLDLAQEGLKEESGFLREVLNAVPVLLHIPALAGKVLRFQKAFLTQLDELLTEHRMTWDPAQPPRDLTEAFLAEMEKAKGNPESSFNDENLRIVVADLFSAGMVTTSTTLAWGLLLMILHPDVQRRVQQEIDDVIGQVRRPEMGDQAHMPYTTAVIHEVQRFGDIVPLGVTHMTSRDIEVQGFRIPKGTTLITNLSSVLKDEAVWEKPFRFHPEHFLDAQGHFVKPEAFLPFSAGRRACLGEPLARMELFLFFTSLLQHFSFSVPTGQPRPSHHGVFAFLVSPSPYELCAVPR
Cytochrome P450 2C19, sequence (P33261 whole entry): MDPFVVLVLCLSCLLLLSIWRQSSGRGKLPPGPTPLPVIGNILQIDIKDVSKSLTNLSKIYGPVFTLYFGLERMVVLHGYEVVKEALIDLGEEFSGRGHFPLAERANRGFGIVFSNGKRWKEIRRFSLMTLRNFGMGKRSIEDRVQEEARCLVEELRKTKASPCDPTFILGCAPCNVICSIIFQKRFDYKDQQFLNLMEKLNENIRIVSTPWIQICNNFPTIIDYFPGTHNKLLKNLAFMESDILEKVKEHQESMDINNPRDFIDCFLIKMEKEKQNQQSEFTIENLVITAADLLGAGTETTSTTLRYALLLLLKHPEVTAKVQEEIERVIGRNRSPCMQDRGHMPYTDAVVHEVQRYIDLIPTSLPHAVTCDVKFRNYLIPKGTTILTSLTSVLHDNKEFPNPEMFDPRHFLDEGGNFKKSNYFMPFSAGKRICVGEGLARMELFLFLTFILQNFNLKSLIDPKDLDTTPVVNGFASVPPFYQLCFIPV
Cytochrome P450 2C9, sequence (P11712 whole entry): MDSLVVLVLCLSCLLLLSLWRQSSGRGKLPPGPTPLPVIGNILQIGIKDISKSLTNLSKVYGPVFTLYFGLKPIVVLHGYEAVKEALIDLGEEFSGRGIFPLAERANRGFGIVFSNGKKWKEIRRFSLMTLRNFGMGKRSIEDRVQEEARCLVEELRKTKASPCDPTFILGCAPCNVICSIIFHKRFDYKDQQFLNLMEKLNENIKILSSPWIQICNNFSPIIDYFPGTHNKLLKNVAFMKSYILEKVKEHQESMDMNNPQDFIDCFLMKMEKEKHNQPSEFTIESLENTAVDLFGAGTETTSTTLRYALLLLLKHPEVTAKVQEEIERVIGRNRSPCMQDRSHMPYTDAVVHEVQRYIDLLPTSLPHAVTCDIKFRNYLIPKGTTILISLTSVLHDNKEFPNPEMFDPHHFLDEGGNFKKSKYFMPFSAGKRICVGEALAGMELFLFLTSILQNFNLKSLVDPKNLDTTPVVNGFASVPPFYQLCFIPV
Voltage-gated inwardly rectifying potassium channel KCNH2, sequence (Q12809 whole entry): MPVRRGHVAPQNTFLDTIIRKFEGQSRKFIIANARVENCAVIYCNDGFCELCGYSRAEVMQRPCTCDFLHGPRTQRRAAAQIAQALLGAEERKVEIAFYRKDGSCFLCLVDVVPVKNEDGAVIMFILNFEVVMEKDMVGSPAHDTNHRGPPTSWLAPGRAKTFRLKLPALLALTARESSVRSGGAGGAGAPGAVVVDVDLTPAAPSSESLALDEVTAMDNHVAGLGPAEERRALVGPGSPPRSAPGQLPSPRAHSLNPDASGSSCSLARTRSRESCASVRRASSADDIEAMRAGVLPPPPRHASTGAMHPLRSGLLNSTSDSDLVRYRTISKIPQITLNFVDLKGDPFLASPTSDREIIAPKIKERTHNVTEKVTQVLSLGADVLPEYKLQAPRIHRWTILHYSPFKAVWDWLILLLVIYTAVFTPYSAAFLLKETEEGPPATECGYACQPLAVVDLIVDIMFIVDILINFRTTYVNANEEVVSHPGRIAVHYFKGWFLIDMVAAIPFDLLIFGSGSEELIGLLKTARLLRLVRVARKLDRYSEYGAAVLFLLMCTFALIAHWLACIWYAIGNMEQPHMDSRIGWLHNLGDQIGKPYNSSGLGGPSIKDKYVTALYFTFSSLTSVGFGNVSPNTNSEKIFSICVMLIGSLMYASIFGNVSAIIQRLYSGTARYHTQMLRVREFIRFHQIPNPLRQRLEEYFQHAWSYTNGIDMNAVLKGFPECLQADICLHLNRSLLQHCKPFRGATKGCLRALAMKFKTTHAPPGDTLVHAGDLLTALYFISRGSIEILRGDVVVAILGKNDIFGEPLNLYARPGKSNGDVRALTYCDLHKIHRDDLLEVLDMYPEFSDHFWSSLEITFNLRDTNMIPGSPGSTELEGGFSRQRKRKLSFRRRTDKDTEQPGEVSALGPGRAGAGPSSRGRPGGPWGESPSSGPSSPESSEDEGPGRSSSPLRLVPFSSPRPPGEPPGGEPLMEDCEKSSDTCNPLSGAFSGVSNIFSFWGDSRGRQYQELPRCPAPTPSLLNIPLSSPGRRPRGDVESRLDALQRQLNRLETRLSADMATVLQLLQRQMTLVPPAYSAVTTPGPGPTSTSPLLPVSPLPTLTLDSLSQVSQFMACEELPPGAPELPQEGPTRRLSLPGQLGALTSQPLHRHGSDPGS

SMILES	IC50 [1] [µM]	IC50 [2] [µM]	remaining at 10 min, 0.5 µM [3] [%]	Papp [4] [×10⁻⁶ cm/s]	IC50 [5] [µM]	IC50 [6] [µM]	remaining at 10 min, 0.5 µM [7] [%]	IC50 [8] [µM]	EC50 [9] [µM]	IC50 at 72 h [10] [µM]	IC50 [11] [µM]	EC50 [12] [µM]	IC50 [13] [µM]	IC50 [14] [µM]	IC50 [15] [µM]	Activity [16]
CCC[C@@H](CCO)Nc1nc(N)nc2cnn(Cc3ncc(C4CCNCC4)cc3OC)c12	> 20	> 50	85	0.9	> 20	> 20	84	> 20	0.512	> 25	> 20	0.163	> 20	> 20	> 20	
CCC[C@H](CCO)Nc1nc(N)nc2cnn(Cc3ncc(C4CCN(C5CCOCC5)CC4)cc3OC)c12	> 20	> 50	95		> 20	> 20	67	> 20		> 25	> 20	0.272	> 20	> 20	> 20	inactive
CCC[C@@H](CCO)Nc1nc(N)nc2cnn(Cc3ncc(C4CCN(C(C)C)CC4)cc3OC)c12	> 20	> 50	78	93	> 20	> 20	80	> 20	0.041	> 25	> 20	0.018	> 20	> 20	> 20	
CCC[C@@H](CCO)Nc1nc(N)nc2cnn(Cc3ncc(C4CCN(CC#N)CC4)cc3OC)c12	> 20	30.2	67		> 20	> 20	65	> 20		> 25	> 20	0.145	> 20	> 20	> 20	inactive
CCC[C@@H](CCO)Nc1nc(N)nc2cnn(Cc3ncc(C4CCN(C)CC4)cc3OC)c12	> 20	43	76	6.6	> 20	> 20	78	> 20	0.076	> 25	> 20		> 20	> 20	> 20	
